Measurements: patent US6911418B2, “Method for treating a subterranean formation” (Schlumberger Technology Corporation, priority 2001, dated 2005)

Test: pH resulting from the aqueous mixture
Format: physicochemical
Conditions: 20 percent tetrasodium, 28 percent dipotassium, 21 percent diammonium mixtures
Protocol: Calcium carbonate was stirred into each mixture until saturation was achieved. The amount of calcium carbonate dissolution was then determined by inductively coupled plasma.

tetrasodium ethylenediamine tetraacetate
pH of aqueous mixture: about 12
